From the Deep4Chem optical property database come the findings set out here.

The data set is described as follows: photoluminescence quantum yield (fraction); solvent given as SMILES.
[1] abbreviates: in c1cc(-c2cccc(-n3c4ccccc4c4ccccc43)c2)cc(-n2c3ccccc3c3ccccc32)c1.
[2] abbreviates: in O=P(c1ccccc1)(c1ccccc1)c1ccccc1Oc1ccccc1P(=O)(c1ccccc1)c1ccccc1.

Each structure is given as a SMILES string.

In the case of `CCn1c2cc(C(C)(C)C)ccc2c2c3nsnc3c3c4ccc(C(C)(C)C)cc4n(CC)c3c21`, the photoluminescence quantum yield is, setting by setting: (in CN(C)C=O) 0.07; (in Cc1ccccc1) 0.08; (in ClCCl) 0.07.
For `CC(=O)Nc1ccc(/C=C2\OC(=O)c3cc(N)ccc32)cc1`, the photoluminescence quantum yield was found to be 0.015 (in CC#N); 0.02 (in CC(C)=O); 0.032 (in CC(C)CO); 0.032 (in CC(C)O); 0.03 (in CCCO); 0.028 (in CCO). The photoluminescence quantum yield runs as follows: (in CCOC(C)=O) 0.023; (in CCOCC) 0.04; (in CO) 0.02.
Turning to `CCN1C(=CC=Cc2n(CC)c3cc(Cl)c(Cl)cc3[n+]2CC)N(CC)c2cc(Cl)c(Cl)cc21`, the photoluminescence quantum yield (in CC#N) was 0.024; the photoluminescence quantum yield (in CCCCCCO) worked out at 0.058; the photoluminescence quantum yield (in CCCCO) was determined as 0.042; the photoluminescence quantum yield (in CCCO) is 0.033; the photoluminescence quantum yield (in CCO) came to 0.023; the photoluminescence quantum yield (in CO) was determined as 0.016. This compound also showed a photoluminescence quantum yield (in CS(C)=O) of 0.055, a photoluminescence quantum yield (in OCC(O)CO) of 0.36 and a photoluminescence quantum yield (in OCCO) of 0.075.
`C=Cc1cc2ccc(OC(=O)c3ccccc3)cc2oc1=O` yielded a photoluminescence quantum yield (in CC#N) of 0.23.
Regarding `CCN(CC)c1ccc2cc(/C=C/c3cccc[n+]3CCCS(=O)(=O)[O-])c(=O)oc2c1`, the photoluminescence quantum yield by setting is: (in C1CCOC1) 0.14; (in CC#N) 0.11; (in CC(C)=O) 0.11; (in CS(C)=O) 0.16; (in Cc1ccccc1) 0.02; (in O) 0.03. For the setting “in OCC(O)CO”, this compound came in with a photoluminescence quantum yield of 0.19.
The compound `CCCCn1c(-c2ccc(-c3ccc(-c4ccc(-c5n(CCCC)c6ccccc6[n+]5CCCC)cc4)cc3)cc2)[n+](CCCC)c2ccccc21` registered a photoluminescence quantum yield (in O) of 0.77.
The compound `CCCCCCCCOc1ccc(C2=C(c3ccc(OCCCCCCCC)cc3)C(C)(C)c3ccccc32)cc1` gave a photoluminescence quantum yield (in C1CCCCC1) of 0.11.
`CC(C)c1cc(C(C)C)c(B2c3cc(-n4c5ccc(C(C)(C)C)cc5c5cc(C(C)(C)C)ccc54)ccc3N(c3ccccc3)c3ccc(-n4c5ccc(C(C)(C)C)cc5c5cc(C(C)(C)C)ccc54)cc32)c(C(C)C)c1` showed a photoluminescence quantum yield under setting [1] of 0.98.
Take `CCN(CC)c1ccc2cc(-c3nc4cc(C(=O)Nc5ccccc5Cl)ccc4o3)c(=O)oc2c1`: the photoluminescence quantum yield (in ClCCl) stood at 0.23.
`F[B-]1(F)n2c(ccc2-c2ccccc2)C(c2ccc(I)cc2)=C2C=CC(c3ccccc3)=[N+]21` showed a photoluminescence quantum yield (in ClC(Cl)Cl) of 0.2.
`CC1(C)c2cc(/C=C/c3nc(/C=C/c4ccc5c(c4)C(C)(C)c4cc(N(c6ccccc6)c6ccccc6)ccc4-5)nc(/C=C/c4ccc5c(c4)C(C)(C)c4cc(N(c6ccccc6)c6ccccc6)ccc4-5)n3)ccc2-c2ccc(N(c3ccccc3)c3ccccc3)cc21` displayed a photoluminescence quantum yield (in Cc1ccccc1) of 0.36.
`CCN(CC)c1ccc(-c2nc3c(nc2-c2ccc(B(c4c(C)cc(C)cc4C)c4c(C)cc(C)cc4C)cc2)c2ccccc2n3C)cc1` came in with a photoluminescence quantum yield (in C1CCOC1) of 0.21.
For the compound `CC(C)(C)c1cc(-c2ccc(-c3cccs3)s2)c2c(c1)c1cc(C(C)(C)C)cc(-c3ccc(-c4cccs4)s3)c1n2-c1ccc(-c2cccs2)s1`, the photoluminescence quantum yield (in ClCCl) is 0.092.
On the same count and under the same terms, as for `CC1=C(c2ccccc2)C(C)=[N+]2C1=C(c1c(-c3ccccn3)nc3ccccn13)c1c(C)cc(C)n1[B-]2(F)F`, the figure is 0.739.
Turning to `CCCCn1c2ccccc2c2c1c1c3ccccc3n(CCCC)c1c1c3ccccc3n(CCCC)c21`, for the setting “in C1CCOC1”, the photoluminescence quantum yield worked out at 0.19.
Turning to `c1ccc(-c2nc(-c3ccccc3)nc(-c3cc(-n4c5ccccc5c5ncccc54)cc(-n4c5ccccc5c5ncccc54)c3)n2)cc1`, the photoluminescence quantum yield (in O=P(c1ccccc1)(c1ccccc1)c1ccc2oc3ccc(P(=O)(c4ccccc4)c4ccccc4)cc3c2c1) was 0.21.
In the case of `CNCCCN1c2ccccc2CCc2ccccc21`, the photoluminescence quantum yield reads like this: (in CC#N) 0.009; (in CO) 0.01; (in O) 0.012.
Consider `COc1ccc2c(c1)c1c(c3cc(OC)ccc32)=[N+]2C(=C(c3c(C)cc(C)cc3C)c3cc4c5cc(OC)ccc5c5ccc(OC)cc5c4n3[B-]2(F)F)C=1`, for which the photoluminescence quantum yield runs as follows: (in C1CCCCC1) 0.08; (in C1CCOC1) 0.001; (in CC#N) 0.01; (in Cc1ccccc1) 0.001; (in ClCCl) 0.001.
Turning to `CCCCCCCCC1(CCCCCCCC)c2ccccc2-c2ccc(-c3nnc(-c4cccc(-n5c6ccc(C(C)(C)C)cc6c6cc(C(C)(C)C)ccc65)c4)o3)cc21`, the photoluminescence quantum yield (in Cc1ccccc1) is 0.13.
Turning to `N#CC(C#N)=Cc1ccc2nc(C#Cc3ccc(N(c4ccccc4)c4ccccc4)cc3)sc2c1`, for the setting “in Cc1ccccc1”, the photoluminescence quantum yield stood at 0.47.
Compound `CCN(CC)c1ccc(C=Cc2nc3nc4ccccc4nc3s2)c(OC)c1` yielded a photoluminescence quantum yield (in CCO) of 0.32.
For the compound `Cc1ccc(/C2=c3\cc/c(o3)=C(\c3ccc(C)cc3)c3ccc([nH]3)-c3ccc4n3[B-](F)(F)[N+]3=C(C=CC3=C4c3ccc[nH]3)c3ccc2[nH]3)cc1`, where the note is “in ClC(Cl)Cl”, the photoluminescence quantum yield is 0.12.
`Nc1cccc2c1C(=O)c1ccccc1-2`: the photoluminescence quantum yield by setting is: (in C1CCCCC1) 0.031; (in CC#N) 0.057; (in CCO) 0.068; (in c1ccccc1) 0.055.
In turn, `CCCCCCN1C(=O)c2cccc3c(-c4ccc(-c5cc(-c6ccccc6)n(-c6ccccc6)n5)s4)ccc(c23)C1=O` registered a photoluminescence quantum yield (in ClCCl) of 0.35.
Same read-out and setting: as for `CCCCNc1ccc2n1[B-](F)(F)[N+]1=CC(/C=C/C(=O)OC(C)(C)C)=CC1=C2c1c(C)cc(C)cc1C`, the figure is 0.59.
Where the note is “in C1COCCO1”, `c1ccc(-c2nc(-c3nc(-c4ccccc4)c(-c4ccccc4)o3)oc2-c2ccccc2)cc1` returned a photoluminescence quantum yield of 0.57.
For the compound `Cc1cc(-n2c3ccccc3c3ccccc32)c(-n2c3ccccc3c3ccccc32)cc1C#N`, the photoluminescence quantum yield runs as follows: under setting [1], 0.89; (in c1ccc2c(c1)c1ccccc1n2-c1ccc2sc3ccc(-n4c5ccccc5c5ccccc54)cc3c2c1) 0.841; (in c1ccc2c(c1)c1ccccc1n2-c1ccc2sc3ccc(-n4c5ccccc5c5cccnc54)cc3c2c1) 0.982; (in c1ccc2c(c1)c1cccnc1n2-c1ccc2sc3ccc(-n4c5ccccc5c5cccnc54)cc3c2c1) 0.879.
On to `CC(C)(C)c1ccc(C2=C(c3ccc(N4c5ccccc5C(C)(C)c5ccccc54)cc3)S(=O)(=O)c3c2sc(-c2ccc(N4c5ccccc5C(C)(C)c5ccccc54)cc2)c3-c2ccc(C(C)(C)C)cc2)cc1`, for which the photoluminescence quantum yield (in C1CCOC1) was determined as 0.021.
Under “in ClCCl”, `CCN(CC)c1ccc2c(c1)OC1=[N+](c3ccc(I)cc3)[B-](F)(F)n3c(nc4ccccc43)C1=C2` returned a photoluminescence quantum yield of 0.81.
Still for that read-out and setting: the figure for `[O-][n+]1c(/C=C/c2ccccc2)nc(N2CCOCC2)c2c1CCCC2` is 0.21; for `CC(C)(C)C1=CC2=C3C(=CC=C4C=CC(c5cc6c7cc(-c8ccc9ccc%10cc(C(C)(C)C)cc%11ccc8c9c%10%11)ccc7c(-c7ccc8ccc9cc(C(C)(C)C)cc%10ccc7c8c9%10)cc6c6cc(-c7ccc8ccc9cc(C(C)(C)C)cc%10ccc7c8c9%10)ccc56)=C(C=C2)C43)C1` (stereo not drawn) it is 0.874.
`CCCCCCCCCCCCOc1ccc(C2=C3C(=O)N(CC(OCC)OCC)C(c4ccc(OCCCCCCCCCCCC)c(OCCCCCCCCCCCC)c4)=C3C(=O)N2CC(OCC)OCC)cc1OCCCCCCCCCCCC` registered a photoluminescence quantum yield (in ClC(Cl)Cl) of 0.9.
Regarding `CCCCCCOc1cc(/C=C/c2cc(OCCCCCC)c(/C=C/c3cc(OCCCCCC)c(C=C4C(=O)c5ccccc5C4=O)cc3OCCCCCC)cc2OCCCCCC)c(OCCCCCC)cc1C=C1C(=O)c2ccccc2C1=O`, under “in ClCCl”, the photoluminescence quantum yield was determined as 0.0468.
The same measure, in the same setting: as for `COc1ccc(C#Cc2ncc(-c3ccccc3)o2)cc1OC`, the figure is 0.04.
For `CC(C)(C)c1ccc2c(c1)c1cc(C(C)(C)C)ccc1n2-c1ccc(-n2c3ccc(C(C)(C)C)cc3c3cc(C(C)(C)C)ccc32)c(-c2nccnc2C#N)c1`, the photoluminescence quantum yield (in Cc1ccccc1) was 0.05 and the photoluminescence quantum yield (in c1cc(-n2c3ccccc3c3ccccc32)cc(-n2c3ccccc3c3ccccc32)c1) was 0.44.
With `CCOC(=O)c1cc(C(=O)NCc2ccccc2)c2ccc(N(C)C)cc2n1`, the photoluminescence quantum yield (in CCO) was 0.06.
With `CCCCCCc1ccc(-n2c3[n+](c4c5ccccc5c5ccccc5c42)[B-](C)(C)c2cc(-n4c5ccccc5c5ccccc54)ccc2-3)cc1`, the photoluminescence quantum yield stood at 0.82 (in C1CCOC1), 0.71 (in CC#N), 0.76 (in Cc1ccccc1) and 0.83 (in ClCCl).
`Cc1ccc2c(c1)nnn2-c1c(C#N)c2c(N)ncnc2n1[C@H]1C[C@H](O)[C@@H](CO)O1`: the photoluminescence quantum yield (in CO) was determined as 0.007.
For `Nc1cc2ccc3cccc4ccc(c1)c2c34`, the photoluminescence quantum yield was determined as 0.14 (in CC#N), 0.19 (in CCCCOCCCC) and 0.17 (in CO).
The compound `F[Si-](F)(c1ccccc1)(c1c2ccccc2cc2ccccc12)c1c2ccccc2cc2ccccc12` gave a photoluminescence quantum yield (in C1CCOC1) of 0.46.
Compound `O=C(c1ccc(-n2c3ccccc3c3ccccc32)cc1)c1ccc(-n2c3ccccc3c3ccccc32)cc1` showed a photoluminescence quantum yield (in Cc1ccccc1) of 0.21 and a photoluminescence quantum yield under setting [2] of 0.55.
Compound `O=S1(=O)c2ccccc2Oc2cc(N3c4ccccc4C4(c5ccccc53)c3ccccc3N(c3ccc5c(c3)Oc3ccccc3S5(=O)=O)c3ccccc34)ccc21` came in with a photoluminescence quantum yield under setting [2] of 0.63.
As for `COc1ccc(-c2nnc(-c3cc(-c4nnc(-c5ccc(OC)cc5)o4)c(-n4c5ccccc5c5ccccc54)cc3-n3c4ccccc4c4ccccc43)o2)cc1`, the photoluminescence quantum yield turned out to be 0.133 (in Cc1ccccc1) and 0.354 under setting [2].
As to `CCOC(=O)c1cc(C(=O)OCC)c2cccc(OCc3ccccc3)c2n1`, under “in CCO”, the photoluminescence quantum yield worked out at 0.2.
